Experimental data from patent publication US20230210831A1, “CHRONIC KIDNEY DISEASE TREATMENT OR PREVENTION METHOD” (Japan Tobacco Inc., priority 2019, published 2023).

Key:
Assay type in all cases: cell-based
Escherichia coli WP2uvrA = assay: Ames test (reverse mutation test), WP2uvrA; settings: for Number of revertant colonies: WP2uvrA, +S9 mix
Experimental: (§1) The solvent used herein was dimethyl sulfoxide (DMSO, 100 µL/plate).
(§2) The mixtures were preincubated at 37° C. for 20 minutes while shaking. […] Two plates per treatment were used.

[1] = tested on: Salmonella typhimurium TA100; assay: Ames test (reverse mutation test), TA100; settings: for Number of revertant colonies: TA100, +S9 mix
Experimental: as §1, §2

[2] = tested on: Salmonella typhimurium TA1535; assay: Ames test (reverse mutation test), TA1535
Experimental: as §1, §2

[3] = tested on: Salmonella typhimurium TA98; assay: Ames test (reverse mutation test), TA98; settings: for Number of revertant colonies: TA98, +S9 mix; for potential to induce reverse mutations: TA98 with S9 mix
Experimental: as §1, §2

[4] = tested on: Salmonella typhimurium TA1537; assay: Ames test (reverse mutation test), TA1537; settings: for Number of revertant colonies: TA1537, +S9 mix
Experimental: as §1, §2

CC(C)(OCc1cc(F)cc(-c2cc(N)nn2-c2ccc(F)cc2)c1)C(F)(F)F [Metabolite D]
Number of revertant colonies WP2uvrA (Escherichia coli WP2uvrA; S9 Mix -, dose 2.3 µg/plate): 25 | Number of revertant colonies WP2uvrA (Escherichia coli WP2uvrA; S9 Mix -, dose 6.9 µg/plate): 27 | Number of revertant colonies WP2uvrA (Escherichia coli WP2uvrA; S9 Mix -, dose 21 µg/plate): 22 | Number of revertant colonies WP2uvrA (Escherichia coli WP2uvrA; S9 Mix -, dose 62 µg/plate): 21 | Number of revertant colonies WP2uvrA (Escherichia coli WP2uvrA; S9 Mix -, dose 185 µg/plate): 22 | Number of revertant colonies WP2uvrA (Escherichia coli WP2uvrA; S9 Mix -, dose 556 µg/plate): 16 | Number of revertant colonies WP2uvrA (Escherichia coli WP2uvrA; S9 Mix -, dose 1667 µg/plate): 18 | Number of revertant colonies WP2uvrA (Escherichia coli WP2uvrA; S9 Mix -, dose 5000 µg/plate): 20 | Number of revertant colonies (Escherichia coli WP2uvrA; 2.3 µg/plate): 31 | Number of revertant colonies (Escherichia coli WP2uvrA; 6.9 µg/plate): 18 | Number of revertant colonies (Escherichia coli WP2uvrA; 21 µg/plate): 24 | Number of revertant colonies (Escherichia coli WP2uvrA; 62 µg/plate): 18 | Number of revertant colonies (Escherichia coli WP2uvrA; 185 µg/plate): 23 | Number of revertant colonies (Escherichia coli WP2uvrA; 556 µg/plate): 32 | Number of revertant colonies (Escherichia coli WP2uvrA; 1667 µg/plate): 28 | Number of revertant colonies (Escherichia coli WP2uvrA; 5000 µg/plate): 28 | Number of revertant colonies TA100 ([1]; S9 Mix -, dose 2.3 µg/plate): 99 | Number of revertant colonies TA100 ([1]; S9 Mix -, dose 6.9 µg/plate): 98 | Number of revertant colonies TA100 ([1]; S9 Mix -, dose 21 µg/plate): 71 | Number of revertant colonies TA100 ([1]; S9 Mix -, dose 62 µg/plate): 96 | Number of revertant colonies TA100 ([1]; S9 Mix -, dose 185 µg/plate): 85 | Number of revertant colonies TA100 ([1]; S9 Mix -, dose 556 µg/plate): 86 | Number of revertant colonies TA100 ([1]; S9 Mix -, dose 1667 µg/plate): 69 | Number of revertant colonies TA100 ([1]; S9 Mix -, dose 5000 µg/plate): 82 | Number of revertant colonies ([1]; 2.3 µg/plate): 139 | Number of revertant colonies ([1]; 6.9 µg/plate): 203 | Number of revertant colonies ([1]; 21 µg/plate): 237 | Number of revertant colonies ([1]; 62 µg/plate): 185 | Number of revertant colonies ([1]; 185 µg/plate): 151 | Number of revertant colonies ([1]; 556 µg/plate): 119 | Number of revertant colonies ([1]; 1667 µg/plate): 100 | Number of revertant colonies ([1]; 5000 µg/plate): 98 | Number of revertant colonies TA1535 ([2]; S9 Mix -, dose 1667 µg/plate): 6 | Number of revertant colonies ([2]; TA1535, +S9 mix, 1667 µg/plate): 7 | Number of revertant colonies TA98 ([3]; S9 Mix -, dose 2.3 µg/plate): 27 | Number of revertant colonies TA98 ([3]; S9 Mix -, dose 6.9 µg/plate): 22 | Number of revertant colonies TA98 ([3]; S9 Mix -, dose 21 µg/plate): 23 | Number of revertant colonies TA98 ([3]; S9 Mix -, dose 62 µg/plate): 25 | Number of revertant colonies TA98 ([3]; S9 Mix -, dose 185 µg/plate): 32 | Number of revertant colonies TA98 ([3]; S9 Mix -, dose 556 µg/plate): 21 | Number of revertant colonies TA98 ([3]; S9 Mix -, dose 1667 µg/plate): 23 | Number of revertant colonies TA98 ([3]; S9 Mix -, dose 5000 µg/plate): 21 | Number of revertant colonies ([3]; 2.3 µg/plate): 39 | Number of revertant colonies ([3]; 6.9 µg/plate): 42 | Number of revertant colonies ([3]; 21 µg/plate): 52 | Number of revertant colonies ([3]; 62 µg/plate): 47 | Number of revertant colonies ([3]; 185 µg/plate): 49 | Number of revertant colonies ([3]; 556 µg/plate): 51 | Number of revertant colonies ([3]; 1667 µg/plate): 57 | Number of revertant colonies ([3]; 5000 µg/plate): 88 | potential to induce reverse mutations [3]: showed potential to induce reverse mutations | Number of revertant colonies TA1537 ([4]; S9 Mix -, dose 2.3 µg/plate): 11 | Number of revertant colonies TA1537 ([4]; S9 Mix -, dose 6.9 µg/plate): 13 | Number of revertant colonies TA1537 ([4]; S9 Mix -, dose 21 µg/plate): 11 | Number of revertant colonies TA1537 ([4]; S9 Mix -, dose 62 µg/plate): 7 | Number of revertant colonies TA1537 ([4]; S9 Mix -, dose 185 µg/plate): 6 | Number of revertant colonies TA1537 ([4]; S9 Mix -, dose 556 µg/plate): 7 | Number of revertant colonies TA1537 ([4]; S9 Mix -, dose 1667 µg/plate): 6 | Number of revertant colonies TA1537 ([4]; S9 Mix -, dose 5000 µg/plate): 8 | Number of revertant colonies ([4]; 2.3 µg/plate): 14 | Number of revertant colonies ([4]; 6.9 µg/plate): 20 | Number of revertant colonies ([4]; 21 µg/plate): 13 | Number of revertant colonies ([4]; 62 µg/plate): 18 | Number of revertant colonies ([4]; 185 µg/plate): 15 | Number of revertant colonies ([4]; 556 µg/plate): 15 | Number of revertant colonies ([4]; 1667 µg/plate): 19 | Number of revertant colonies ([4]; 5000 µg/plate): 24 | potential to induce reverse mutations ([4]; TA1537 with S9 mix): showed potential to induce reverse mutations

Nc1cc(-c2cccc(OCC(F)(F)F)c2)n(-c2ccc(F)cc2)n1 [Metabolite E]
Number of revertant colonies WP2uvrA (Escherichia coli WP2uvrA; S9 Mix +, dose 2.3 µg/plate): 26 | Number of revertant colonies WP2uvrA (Escherichia coli WP2uvrA; S9 Mix +, dose 6.9 µg/plate): 32 | Number of revertant colonies WP2uvrA (Escherichia coli WP2uvrA; S9 Mix +, dose 21 µg/plate): 24 | Number of revertant colonies WP2uvrA (Escherichia coli WP2uvrA; S9 Mix +, dose 62 µg/plate): 30 | Number of revertant colonies WP2uvrA (Escherichia coli WP2uvrA; S9 Mix +, dose 185 µg/plate): 18 | Number of revertant colonies WP2uvrA (Escherichia coli WP2uvrA; S9 Mix +, dose 556 µg/plate): 19 | Number of revertant colonies WP2uvrA (Escherichia coli WP2uvrA; S9 Mix +, dose 1667 µg/plate): 13 | Number of revertant colonies WP2uvrA (Escherichia coli WP2uvrA; S9 Mix +, dose 5000 µg/plate): 12 | Number of revertant colonies WP2uvrA (Escherichia coli WP2uvrA; S9 Mix -, dose 2.3 µg/plate): 20 | Number of revertant colonies WP2uvrA (Escherichia coli WP2uvrA; S9 Mix -, dose 6.9 µg/plate): 26 | Number of revertant colonies WP2uvrA (Escherichia coli WP2uvrA; S9 Mix -, dose 21 µg/plate): 24 | Number of revertant colonies WP2uvrA (Escherichia coli WP2uvrA; S9 Mix -, dose 62 µg/plate): 27 | Number of revertant colonies WP2uvrA (Escherichia coli WP2uvrA; S9 Mix -, dose 185 µg/plate): 22 | Number of revertant colonies WP2uvrA (Escherichia coli WP2uvrA; S9 Mix -, dose 556 µg/plate): 10 | Number of revertant colonies WP2uvrA (Escherichia coli WP2uvrA; S9 Mix -, dose 1667 µg/plate): 15 | Number of revertant colonies WP2uvrA (Escherichia coli WP2uvrA; S9 Mix -, dose 5000 µg/plate): 7 | Number of revertant colonies TA100 ([1]; S9 Mix +, dose 2.3 µg/plate): 1338 | Number of revertant colonies TA100 ([1]; S9 Mix +, dose 6.9 µg/plate): 2032 | Number of revertant colonies TA100 ([1]; S9 Mix +, dose 21 µg/plate): 2016 | Number of revertant colonies TA100 ([1]; S9 Mix +, dose 62 µg/plate): 2320 | Number of revertant colonies TA100 ([1]; S9 Mix +, dose 185 µg/plate): 1799 | Number of revertant colonies TA100 ([1]; S9 Mix +, dose 556 µg/plate): 1082 | Number of revertant colonies TA100 ([1]; S9 Mix +, dose 1667 µg/plate): 182 | Number of revertant colonies TA100 ([1]; S9 Mix +, dose 5000 µg/plate): 157 | Number of revertant colonies TA100 ([1]; S9 Mix -, dose 2.3 µg/plate): 110 | Number of revertant colonies TA100 ([1]; S9 Mix -, dose 6.9 µg/plate): 96 | Number of revertant colonies TA100 ([1]; S9 Mix -, dose 21 µg/plate): 96 | Number of revertant colonies TA100 ([1]; S9 Mix -, dose 62 µg/plate): 101 | Number of revertant colonies TA100 ([1]; S9 Mix -, dose 185 µg/plate): 75 | Number of revertant colonies TA100 ([1]; S9 Mix -, dose 556 µg/plate): 38 | Number of revertant colonies TA100 ([1]; S9 Mix -, dose 1667 µg/plate): 27 | Number of revertant colonies TA100 ([1]; S9 Mix -, dose 5000 µg/plate): 0 | potential to induce reverse mutations ([1]; TA100 with S9 mix): showed potential to induce reverse mutations | Number of revertant colonies TA1535 ([2]; S9 Mix +, dose 1667 µg/plate): 0 | Number of revertant colonies TA1535 ([2]; S9 Mix -, dose 556 µg/plate): 0 | Number of revertant colonies TA1535 ([2]; S9 Mix -, dose 1667 µg/plate): 0 | potential to induce reverse mutations ([2]; TA1535 with S9 mix): showed potential to induce reverse mutations | Number of revertant colonies TA98 ([3]; S9 Mix +, dose 2.3 µg/plate): 589 | Number of revertant colonies TA98 ([3]; S9 Mix +, dose 6.9 µg/plate): 1310 | Number of revertant colonies TA98 ([3]; S9 Mix +, dose 21 µg/plate): 1001 | Number of revertant colonies TA98 ([3]; S9 Mix +, dose 62 µg/plate): 490 | Number of revertant colonies TA98 ([3]; S9 Mix +, dose 185 µg/plate): 268 | Number of revertant colonies TA98 ([3]; S9 Mix +, dose 556 µg/plate): 77 | Number of revertant colonies TA98 ([3]; S9 Mix +, dose 1667 µg/plate): 15 | Number of revertant colonies TA98 ([3]; S9 Mix +, dose 5000 µg/plate): 12 | Number of revertant colonies TA98 ([3]; S9 Mix -, dose 2.3 µg/plate): 26 | Number of revertant colonies TA98 ([3]; S9 Mix -, dose 6.9 µg/plate): 27 | Number of revertant colonies TA98 ([3]; S9 Mix -, dose 21 µg/plate): 28 | Number of revertant colonies TA98 ([3]; S9 Mix -, dose 62 µg/plate): 32 | Number of revertant colonies TA98 ([3]; S9 Mix -, dose 185 µg/plate): 17 | Number of revertant colonies TA98 ([3]; S9 Mix -, dose 556 µg/plate): 12 | Number of revertant colonies TA98 ([3]; S9 Mix -, dose 1667 µg/plate): 6 | Number of revertant colonies TA98 ([3]; S9 Mix -, dose 5000 µg/plate): 2 | potential to induce reverse mutations [3]: showed potential to induce reverse mutations | Number of revertant colonies TA1537 ([4]; S9 Mix +, dose 2.3 µg/plate): 65 | Number of revertant colonies TA1537 ([4]; S9 Mix +, dose 6.9 µg/plate): 227 | Number of revertant colonies TA1537 ([4]; S9 Mix +, dose 21 µg/plate): 180 | Number of revertant colonies TA1537 ([4]; S9 Mix +, dose 62 µg/plate): 102 | Number of revertant colonies TA1537 ([4]; S9 Mix +, dose 185 µg/plate): 85 | Number of revertant colonies TA1537 ([4]; S9 Mix +, dose 556 µg/plate): 0 | Number of revertant colonies TA1537 ([4]; S9 Mix +, dose 1667 µg/plate): 0 | Number of revertant colonies TA1537 ([4]; S9 Mix +, dose 5000 µg/plate): 0 | Number of revertant colonies TA1537 ([4]; S9 Mix -, dose 2.3 µg/plate): 17 | Number of revertant colonies TA1537 ([4]; S9 Mix -, dose 6.9 µg/plate): 20 | Number of revertant colonies TA1537 ([4]; S9 Mix -, dose 21 µg/plate): 16 | Number of revertant colonies TA1537 ([4]; S9 Mix -, dose 62 µg/plate): 11 | Number of revertant colonies TA1537 ([4]; S9 Mix -, dose 185 µg/plate): 3 | Number of revertant colonies TA1537 ([4]; S9 Mix -, dose 556 µg/plate): 0 | Number of revertant colonies TA1537 ([4]; S9 Mix -, dose 1667 µg/plate): 0 | Number of revertant colonies TA1537 ([4]; S9 Mix -, dose 5000 µg/plate): 0 | potential to induce reverse mutations ([4]; TA1537 with S9 mix): showed potential to induce reverse mutations | potential to induce reverse mutations ([4]; TA1537 without S9 mix): showed potential to induce reverse mutations
